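Following 48 hours of exposure in 96-well plates, responses at five concentrations were used to interpolate endpoints linearly. GI50 marks 50% less growth.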 Activity calls are given as the source filed them. Rule as the data show it: active = GI50 up to about 1.1 µM and inactive = higher.
How the values were obtained:
Assay in all cases: inhibition of tumour cell growth, NCI panel, 48 h
[1] = test system: LOX IMVI
[2] = test system: SR
[3] = test system: SF-268
[4] = test system: A549
[5] = test system: CCRF-CEM
[6] = test system: HCT-15
[7] = test system: UACC-62
[8] = test system: KM12
[9] = test system: HOP-62
[10] = test system: Malme-3M
[11] = test system: CAKI-1
[12] = test system: KM-20L2
[13] = test system: MOLT-4
[14] = test system: HOP-92
[15] = test system: SK-MEL-5
[16] = test system: U-251
[17] = test system: DMS-114
[18] = test system: M14
[19] = test system: HT-29
[20] = test system: NCI-H23
[21] = test system: DLD-1
[22] = test system: XF498
[23] = test system: SF-295
[24] = test system: RXF 631
[25] = test system: HL-60
[26] = test system: TK-10
[27] = test system: SF-539
[28] = test system: UACC-257
[29] = test system: OVCAR-5
[30] = test system: DMS-273
[31] = test system: SW-620
[32] = test system: EKVX
[33] = test system: SNB-19
[34] = test system: NCI-H522
[35] = test system: RXF 393
[36] = test system: 786-0
[37] = test system: RPMI-8226
[38] = test system: UO-31
[39] = test system: SK-MEL-2
[40] = test system: LXFL 529
[41] = test system: NCI-H460
[42] = test system: SN12C
[43] = test system: IGROV-1
[44] = test system: OVCAR-8
[45] = test system: A498
[46] = test system: SK-OV-3
[47] = test system: K562
[48] = test system: SNB-78
[49] = test system: OVCAR-3
[50] = test system: HCT-116
[51] = test system: M19-MEL
[52] = test system: NCI-H226
[53] = test system: SNB-75
[54] = test system: HOP-18
[55] = test system: COLO 205
[56] = test system: OVCAR-4
[57] = test system: SK-MEL-28
[58] = test system: HCC 2998
[59] = test system: ACHN

Measured: GI50

CCN(CC)c1ccc(/N=N/c2ccc(-c3nc4ccc[n+](C)c4o3)cc2)cc1
inactive: [1] 4.3 µM | [2] 3.69 µM | [3] 12.6 µM | [4] 9.77 µM | [5] 3.27 µM | [7] 9.27 µM | [8] 11.1 µM | [9] 16.3 µM | [10] 2.31 µM | [11] 12.9 µM | [12] 13 µM | [13] 3.66 µM | [14] 15.2 µM | [15] 2.97 µM | [16] 4.57 µM | [17] 3.7 µM | [18] 12.1 µM | [19] 11.3 µM | [20] 12.8 µM | [21] 7.33 µM | [22] 11.3 µM | [23] 14.8 µM | [24] 12.7 µM | [25] 2.06 µM | [26] 12.3 µM | [27] 5.46 µM | [28] 7.01 µM | [29] 3.54 µM | [30] 10.5 µM | [31] 4.76 µM | [32] 13.6 µM | [33] 13.3 µM | [34] 4.93 µM | [35] 10.7 µM | [36] 11.4 µM | [37] 2.75 µM | [38] 12.7 µM | [39] 12 µM | [40] 3.81 µM | [41] 12.6 µM | [42] 15.5 µM | [43] 12.9 µM | [44] 5.11 µM | [45] 15.7 µM | [46] 19.5 µM | [47] 2.4 µM | [48] 11.4 µM | [49] 10 µM | [50] 4.18 µM | [51] 4.98 µM | [52] 11.5 µM | [53] 11.6 µM | [54] 23.7 µM | [55] 2.29 µM | [56] 12 µM
10.3 µM: [6]

C[N+](C)(C)CC(=O)NC(=O)N/N=C\C(CC#N)CN(Cc1ccccc1)Cc1ccccc1 (stereo unspecified)
inactive: [1] > 100 µM | [2] > 100 µM | [3] > 100 µM | [4] > 100 µM | [5] > 100 µM | [7] > 100 µM | [8] > 100 µM | [9] > 100 µM | [10] 58.2 µM | [11] > 100 µM | [12] > 100 µM | [57] > 100 µM | [13] > 100 µM | [15] > 100 µM | [16] > 100 µM | [17] > 100 µM | [18] > 100 µM | [19] > 100 µM | [20] > 100 µM | [21] > 100 µM | [22] > 100 µM | [58] 66.4 µM | [23] 38 µM | [24] > 100 µM | [25] > 100 µM | [26] > 100 µM | [27] > 100 µM | [28] > 100 µM | [29] > 100 µM | [30] > 100 µM | [31] > 100 µM | [32] > 100 µM | [33] > 100 µM | [34] > 100 µM | [35] > 100 µM | [36] > 100 µM | [38] > 100 µM | [39] > 100 µM | [40] > 100 µM | [41] > 100 µM | [42] > 100 µM | [43] > 100 µM | [44] > 100 µM | [45] > 100 µM | [46] > 100 µM | [47] > 100 µM | [48] > 100 µM | [49] > 100 µM | [50] > 100 µM | [51] > 100 µM | [52] 37.5 µM | [53] > 100 µM | [59] > 100 µM | [54] 59.6 µM | [55] > 100 µM | [56] > 100 µM
> 100 µM: [6]

COc1ccccc1/C=C1\CCC(CCN(C)C)(C2=CCCC2)C1=O (stereo unspecified)
inactive: [1] 17.1 µM | [2] 31.6 µM | [3] 19.4 µM | [4] 23.9 µM | [5] 16.5 µM | [7] 11.2 µM | [8] 18.2 µM | [9] 17.3 µM | [10] 15.7 µM | [11] 20.9 µM | [12] 1.7 µM | [57] 17.7 µM | [13] 20.7 µM | [14] 16.9 µM | [15] 13.8 µM | [16] 16.6 µM | [17] 17.3 µM | [18] 15.5 µM | [19] 15.3 µM | [20] 31.6 µM | [21] 16.8 µM | [22] 16.5 µM | [58] 18 µM | [23] 17.3 µM | [24] 13.9 µM | [25] 21.6 µM | [26] 18.5 µM | [27] 15.1 µM | [28] 17.2 µM | [29] 19.1 µM | [30] 17.5 µM | [31] 17.5 µM | [32] 1.81 µM | [33] 16.1 µM | [34] 14.1 µM | [35] 12.8 µM | [36] 14.4 µM | [37] 17.8 µM | [38] 17.6 µM | [39] 19.5 µM | [40] 16.1 µM | [41] 14.8 µM | [42] 22.1 µM | [43] 14.1 µM | [44] 17.5 µM | [45] 16.6 µM | [47] 11.1 µM | [48] 23.9 µM | [49] 16.9 µM | [50] 12.7 µM | [51] 17.9 µM | [52] 19.5 µM | [53] 17.4 µM | [59] 16.7 µM | [54] 26.5 µM | [55] 10.2 µM | [56] 17.7 µM
19.2 µM: [6]

— ChEMBL document CHEMBL1201862, “PubChem BioAssay data set” (2004)
